What was measured:
PxRDL2 [1] = biological target: T1, PxRDL2 (Plutella xylostella, UniProt C0L7I7); assay: two-electrode voltage clamp, Xenopus oocytes; assay type: cell-based
T1 sequence (C0L7I7 30-520): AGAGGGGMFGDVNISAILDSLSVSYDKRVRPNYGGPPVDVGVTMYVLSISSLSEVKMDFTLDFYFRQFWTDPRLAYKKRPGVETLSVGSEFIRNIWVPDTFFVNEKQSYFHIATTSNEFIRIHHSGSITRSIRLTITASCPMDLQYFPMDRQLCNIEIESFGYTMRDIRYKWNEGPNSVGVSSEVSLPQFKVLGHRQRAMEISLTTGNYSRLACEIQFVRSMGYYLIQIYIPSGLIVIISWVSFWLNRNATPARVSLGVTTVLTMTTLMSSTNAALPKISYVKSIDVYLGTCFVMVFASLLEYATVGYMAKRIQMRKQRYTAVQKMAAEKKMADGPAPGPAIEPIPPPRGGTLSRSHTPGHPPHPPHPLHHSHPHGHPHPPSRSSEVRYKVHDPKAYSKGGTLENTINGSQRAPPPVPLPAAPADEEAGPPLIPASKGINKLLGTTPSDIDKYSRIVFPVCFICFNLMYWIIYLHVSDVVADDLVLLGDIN

PxRDL1 [2] = biological target: T2, PxRDL1 (Plutella xylostella, UniProt C0L7I5); assay: cell-based; set-up: species or system Xenopus laevis oocytes
T2 sequence (C0L7I5 26-485): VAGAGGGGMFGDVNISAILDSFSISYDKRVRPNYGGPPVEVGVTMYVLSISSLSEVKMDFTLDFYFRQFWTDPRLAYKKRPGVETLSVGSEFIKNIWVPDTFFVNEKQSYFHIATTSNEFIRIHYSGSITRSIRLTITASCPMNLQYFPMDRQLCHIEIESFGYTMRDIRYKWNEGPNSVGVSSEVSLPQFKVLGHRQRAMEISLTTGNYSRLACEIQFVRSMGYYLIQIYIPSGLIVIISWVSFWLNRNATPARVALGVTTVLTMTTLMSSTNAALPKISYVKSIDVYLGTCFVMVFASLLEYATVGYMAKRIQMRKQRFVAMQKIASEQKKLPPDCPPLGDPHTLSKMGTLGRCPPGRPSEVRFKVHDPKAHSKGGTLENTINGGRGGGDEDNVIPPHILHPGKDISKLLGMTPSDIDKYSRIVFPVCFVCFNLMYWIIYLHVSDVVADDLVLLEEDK

PxRDL1 [3] = biological target: T2, PxRDL1; assay: cell-based; set-up: species or system Xenopus laevis oocytes; remark: listed apart in the source
PxRDL2 [4] = biological target: T1, PxRDL2; assay: two-electrode voltage clamp, Xenopus oocytes; assay type: cell-based; remark: listed apart in the source

Structure (SMILES): NCCCC(=O)O [GABA]
- EC50 (PxRDL2 [1]): 153 µM
- EC50 (PxRDL1 [2]): 20.8 ± 5.99 µM

Structure (SMILES): N#Cc1nn(-c2c(Cl)cc(C(F)(F)F)cc2Cl)c(N)c1[S+]([O-])C(F)(F)F (stereo not shown) [fipronil]
- IC50 (PxRDL1 [3]): 0.13 ± 0.01 µM
- IC50 (PxRDL2 [4]): 5.23 µM
